Converted amounts (≈) assume the structure as drawn.
Assays:
[1] = Photo-toxicity: ear abnormality after intravenous dosing and ultraviolet exposure; assay type: in vivo; conditions: 40 mg/kg/10 mℓ intravenously, female ICR mouse, headed 0 hour; for Number of toxicity-developed cases: ultraviolet rays 320-400 nm, 1.8 mW/cm²/sec, 4 hours; for ranking points: ultraviolet rays 4 hours, 0 = no abnormality, 1 = slight erythema, 2 = medium erythema, 3 = heavy erythema or edema
Procedure: After 40 mg/kg/10 mℓ of the test compound were administered intravenously to a female ICR mouse (5-6 week old), it was exposed to ultraviolet rays (320-400 nm, 1.8 mW/cm²/sec) for 4 hours. […] The abnormality on the ears was ranked as 0 point in the case of no abnormality, 1 point in the case of slight erythema, 2 points in the case of medium erythema, and 3 points in the case of heavy erythema or edema.

[2] = system: E.coli NIH JC-2 (IFO*12734); experiment: Antibacterial activities: minimum inhibitory concentration (standard method of Japan Society of Chemotherapy); assay type: cell-based; conditions: Escherichia coli
Procedure: (§1) The minimum inhibitory concentration [MIC: µg/mℓ] was measured in accordance with the standard method of Japan Society of Chemotherapy [CHEMOTHERAPY, 29, No.1, 76-79(1981)]. The results are shown in Table 13 in which compound numbers are the same as those synthesized in the above Examples.

[3] = system: S.aureus 209P (IFO 12732); experiment: as above; assay type: cell-based; conditions: Staphylococcus aureus
Procedure: as §1

P.aeruginosa (IFO 3445) = experiment: as above; assay type: cell-based; conditions: Pseudomonas aeruginosa, IFO3445
Procedure: as §1

[4] = Absorption and excretion: recovery in bile after oral administration; assay type: in vivo; conditions: rats with polyethylene tube in choledoch, bile collected over 24 hours
Procedure: The absorption and excretion of the orallyadministered invention compound were tested by measuring the recovery in urine and that in bile according to the following method.
After the test compound was prepared in a similar manner to the measurement of the recovery in urine, it was orally administered to the rats who had had their choledoch inserted with a polyethylene tube. The bile was collected over 24 hours. The concentration of the test compound in the bile was examined in the similar manner to the above and the excretion rate in the bile for 24 hours was determined.

Row | MIC [2] | MIC [3] | MIC (P.aeruginosa (IFO 3445)) | Compound | Number of toxicity-developed cases ([1]; first column) | Number of toxicity-developed cases ([1]; second column) | Number of toxicity-developed cases ([1]; third column) | ranking points ([1]; first column) | ranking points ([1]; second column) | ranking points ([1]; third column) | Excretion rate (24 hrs, %) in bile [4]
1 |  |  |  | CCn1cc(C(=O)O)c(=O)c2cc(F)c(N3CCNCC3)nc21 [Enoxacin, reference compound] |  |  |  | 1.0 | 0.4 | 0.3 | 
2 |  |  |  | CCn1cc(C(=O)O)c(=O)c2cc(F)c(N3CCNCC3)cc21 [Norfloxacin, reference compound] |  |  |  | 1.0 | 1.0 | 0 | 
3 | 0.1 µg/mL (≈ 0.277 µM) | 0.39 µg/mL (≈ 1.08 µM) | 1.56 µg/mL (≈ 4.32 µM) | CC1COc2c(N3CCN(C)CC3)c(F)cc3c(=O)c(C(=O)O)cn1c23 (stereo not shown) [Ofloxacin, reference compound] |  |  |  |  |  |  | 
4 | 0.05 µg/mL (≈ 0.127 µM) | 0.2 µg/mL (≈ 0.509 µM) | 0.2 µg/mL (≈ 0.509 µM) | N[C@H]1CCN(c2cc3c(c(Cl)c2F)c(=O)c(C(=O)O)cn3-c2ccon2)C1 [compound 49] |  |  |  |  |  |  | 
5 | 0.013 µg/mL (≈ 0.0348 µM) | 0.05 µg/mL (≈ 0.134 µM) | 0.1 µg/mL (≈ 0.268 µM) | Nc1c(F)c(N2CC[C@H](N)C2)cc2c1c(=O)c(C(=O)O)cn2-c1ccon1 [compound 57] |  |  |  |  |  |  | 
6 | 0.013 µg/mL (≈ 0.0336 µM) | 0.05 µg/mL (≈ 0.129 µM) | 0.2 µg/mL (≈ 0.516 µM) | C[C@H]1CN(c2cc3c(c(N)c2F)c(=O)c(C(=O)O)cn3-c2ccon2)C[C@H]1N [compound 58] |  |  |  |  |  |  | 

Row | Compound | MIC [2] | MIC [3] | MIC (P.aeruginosa (IFO 3445)) | Number of toxicity-developed cases ([1]; first column) | Number of toxicity-developed cases ([1]; second column) | Number of toxicity-developed cases ([1]; third column) | ranking points ([1]; first column) | ranking points ([1]; second column) | ranking points ([1]; third column) | Excretion rate (24 hrs, %) in bile [4]
7 | Cl.N[C@H]1CCN(c2cc3c(cc2F)c(=O)c(C(=O)O)cn3-c2ccon2)C1 [Compound No. 4, 7-{3(S)-aminopyrrolidin-1-yl}-6-fluoro-1-(isoxazol-3-yl)-1,4-dihydro-4-oxoquinoline-3-carboxylic acid hydrochloride] | 0.025 µg/mL | 0.1 µg/mL | 0.1 µg/mL | 0/6 | 0/6 | 0/6 | 0 | 0 | 0 | 
8 | C[C@H]1CN(c2cc3c(cc2F)c(=O)c(C(=O)O)cn3-c2ccon2)C[C@H]1N [Compound No. 5] | 0.025 µg/mL (≈ 0.0671 µM) | 0.1 µg/mL (≈ 0.269 µM) | 0.2 µg/mL (≈ 0.537 µM) | 0/6 | 0/6 | 0/6 | 0 | 0 | 0 | 1.2%

Source: patent EP0700912A1, “QUINOLONE DERIVATIVE OR SALT THEREOF, AND ANTIBACTERIAL CONTAINING THE SAME” (priority 1993, dated 1994)
